From patent publication US20230348456A1, “QUINAZOLINONES, PHARMACEUTICAL COMPOSITIONS CONTAINING THE SAME, AND METHODS OF USING THE SAME” (Repare Therapeutics Inc., priority 2022, published 2023) come the findings set out here.

recombinant human Myt1, sequence (Q99640 whole entry): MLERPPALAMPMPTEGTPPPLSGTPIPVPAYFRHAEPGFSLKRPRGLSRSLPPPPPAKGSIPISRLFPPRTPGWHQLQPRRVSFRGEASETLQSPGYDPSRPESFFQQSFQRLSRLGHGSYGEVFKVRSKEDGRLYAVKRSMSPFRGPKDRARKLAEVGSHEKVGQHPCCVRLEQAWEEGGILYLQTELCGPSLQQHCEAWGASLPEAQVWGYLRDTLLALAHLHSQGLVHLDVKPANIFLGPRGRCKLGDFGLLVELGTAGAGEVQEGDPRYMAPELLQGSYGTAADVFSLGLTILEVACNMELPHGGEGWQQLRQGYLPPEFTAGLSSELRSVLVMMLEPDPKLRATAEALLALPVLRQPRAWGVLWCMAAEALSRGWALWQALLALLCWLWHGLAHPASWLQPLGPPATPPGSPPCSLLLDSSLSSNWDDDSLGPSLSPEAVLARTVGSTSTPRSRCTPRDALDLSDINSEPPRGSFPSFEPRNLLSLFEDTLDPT

The target in the experiment is recombinant human Myt1 (Homo sapiens (Human), UniProt Q99640). Description: Myt1 enzymatic assay (ADP-Glo kinase assay). The experiment is classed as biochemical. The following applies: recombinant human Myt1 18 nM, ATP 10 μM. As for the experimental part:
Detection of Myt1 kinase activity utilized a recombinant human Myt1 kinase assay measuring the hydrolysis of ATP using a commercially available ADP-Glo Assay (ADP-Glo™ Kinase Assay from Promega, 10 000 assays, #V9102). Briefly, 5 μL recombinant human Myt1 (full length PKMYT1 recombinant human protein expressed in insect cells from Thermo Fisher #A33387; ˜80% purity) was prepared in reaction buffer (70 mM HEPES, 3 mM MgCl2, 3 mM MnCl2, 50 μg/ml PEG 20000, 3 μM Na-orthovanadate, 1.2 mM DTT) and added to 384 well white polystyrene, flat bottom well, non-treated, microplate (Corning #3572). After this, 5 μL of compounds (diluted in reaction buffer to 0.5% DMSO) was added to the microplate and the plate was spun briefly and incubated at 22° C. for 15 minutes. Ultra-Pure Adenosine Triphosphate (ATP) solution (ADP-Glo kit from Promega) was diluted in reaction buffer and 5 μL was added to the microplate, spun down briefly and incubated for 60 minutes at 30° C. The final Myt1 enzyme concentration was 18 nM and the final ATP concentration was 10 μM. After the 60-minute incubation, 15 μL of ADP-Glo reagent was added and the plate was spun briefly and sealed and incubated in the dark for 40 minutes at 22° C. Following this, 30 μL of kinase detection reagent was added per well and the plate was spun briefly, sealed and incubated for 45-60 minutes at 22° C. in the dark. Luminescence was read using the Envision (250 ms integration). The IC50 and the % max inhibition were calculated for each inhibitor compound tested.
A general note: ADP-Glo turns the ADP formed in a reaction into a luminescent signal.
For the compound `Nc1c(-c2cccc3[nH]ncc23)cc(-c2ccc(C(F)(F)F)s2)c2nc[nH]c(=O)c12` [Compound 126], the concentration for half-maximal inhibition (IC50) (usually the concentration that gives 50% inhibition) was found to be 0.88 µM.

As for `N#Cc1cnc(-c2cc(-c3cccc4[nH]ncc34)c(N)c3c(=O)[nH]cnc23)s1` [Compound 128], the IC50 was determined as 0.005 µM.

For `Cn1ccc(-c2cc(-c3cccc4[nH]ncc34)c(N)c3c(=O)[nH]cnc23)n1` [Compound 129], the concentration for half-maximal inhibition (IC50) worked out at 0.023 µM.

In the case of `Nc1c(-c2cccc3[nH]ncc23)cc(-c2cnccn2)c2nc[nH]c(=O)c12` [Compound 130], the concentration for half-maximal inhibition (IC50) is 0.045 µM.

Consider `Nc1c(-c2cccc3[nH]ncc23)cc(-c2cccnn2)c2nc[nH]c(=O)c12` [Compound 131], for which the IC50 worked out at 0.07 µM.

With `Nc1c(-c2cccc3[nH]ncc23)cc(-c2ccns2)c2nc[nH]c(=O)c12` [Compound 132], the half-inhibitory concentration (IC50) turned out to be 0.004 µM.

Take `Cc1ccc2[nH]ncc2c1-c1cc(Br)c2nc[nH]c(=O)c2c1N` [Compound 133]: the IC50 was found to be 0.026 µM.

With `Cc1ccc(O)c(C)c1-c1cc(C2CC2)c2nc(-c3ccncc3)[nH]c(=O)c2c1N` [Compound 134, 5-amino-8-cyclopropyl-6-(3-hydroxy-2,6-dimethyl-phenyl)-2-(4-pyridyl)-3H-quinazolin-4-one], the half-maximal inhibitory concentration (IC50) worked out at 0.005 µM.

For `Cc1ccc(O)c(C)c1-c1cc(-c2ccn(C3CC3)n2)c2nc(-c3ccncc3)[nH]c(=O)c2c1N` [Compound 135], the IC50 amounted to 0.003 µM.

In the case of `Cc1ccc(O)cc1-c1cc(-c2ccccn2)c2c(c1N)C(=O)NC2` [Compound 136], the IC50 stood at 0.548 µM.

In the case of `Cc1ccc(O)cc1-c1cc(-c2ccccn2)c2nc[nH]c(=O)c2c1N` [Compound 137], the IC50 came to 0.051 µM.

Consider `Cc1ccc(O)cc1-c1cc(Br)c2nc[nH]c(=O)c2c1N` [Compound 138], for which the IC50 worked out at 0.041 µM.

As for `Cc1ccc(O)c(C)c1-c1cc(-c2nccs2)c2c(c1N)C(=O)NC2` [Compound 139], the half-inhibitory concentration (IC50) came out at 0.007 µM.

On to `Cc1ccc(O)c(C)c1-c1cc(-c2ccc(F)cn2)c2c(c1N)C(=O)NC2` [Compound 140], for which the 50% inhibitory concentration (IC50) came out at 0.111 µM.

In the case of `Cc1ccc(O)c(C)c1-c1cc(Br)c2c(c1N)C(=O)NC2` [Compound 141], the IC50 is 0.092 µM.

As for `Cc1ccc(O)cc1-c1cc(-c2ncc(NC(=O)C3CC3)s2)c2c(c1N)C(=O)NC2` [Compound 142], the IC50 amounted to 2.24 µM.

For the compound `Cc1ccc(O)cc1-c1cc(-c2ncc(CN3CCOCC3)s2)c2c(c1N)C(=O)NC2` [Compound 143], the 50% inhibitory concentration (IC50) amounted to 1.6 µM.

With `Cc1ccc(O)cc1-c1cc(-c2nc(NC(=O)C3CCOCC3)cs2)c2c(c1N)C(=O)NC2` [Compound 144], the 50% inhibitory concentration (IC50) amounted to 0.93 µM.

As for `Cc1ccc(O)cc1-c1cc(-c2nc(C(=O)NCCO)cs2)c2c(c1N)C(=O)NC2` [Compound 145], the IC50 came out at 0.645 µM.

For the compound `Cc1ccc(O)cc1-c1cc(-c2nc(CN3CCOCC3)cs2)c2c(c1N)C(=O)NC2` [Compound 146], the half-inhibitory concentration (IC50) is 0.135 µM.

As to `Cc1ccc(O)cc1-c1cc(-c2ncc(C(=O)NCCO)s2)c2c(c1N)C(=O)NC2` [Compound 147], the half-maximal inhibitory concentration (IC50) is 0.209 µM.

In the case of `Cc1ccc(O)cc1-c1cc(-c2ncc(C(=O)O)s2)c2c(c1N)C(=O)NC2` [Compound 148], the IC50 is 1.86 µM.

`Cc1ccc(O)cc1-c1cc(-c2nc(C(F)(F)F)cs2)c2c(c1N)C(=O)NC2` [Compound 149]: the half-maximal inhibitory concentration (IC50) was 0.682 µM.

As to `CNC(=O)c1cnc(-c2cc(-c3cc(O)ccc3C)c(N)c3c2CNC3=O)s1` [Compound 150], the half-inhibitory concentration (IC50) was found to be 0.163 µM.

`Cc1ccc(O)cc1-c1cc(-c2nc(C(=O)N(C)C)cs2)c2c(c1N)C(=O)NC2` [Compound 151]: the IC50 worked out at 0.061 µM.

Take `Cc1ccc(O)cc1-c1cc(-c2ncc(C(=O)N3CCOCC3)s2)c2c(c1N)C(=O)NC2` [Compound 152]: the IC50 turned out to be 0.683 µM.

With `Cc1ccc(O)cc1-c1cc(-c2ncc(C(=O)NC(C)C)s2)c2c(c1N)C(=O)NC2` [Compound 153], the IC50 turned out to be 0.477 µM.

Take `Cc1ccc(O)cc1-c1cc(-c2ncc(C(=O)N(C)C)s2)c2c(c1N)C(=O)NC2` [Compound 154]: the IC50 is 0.298 µM.

For the compound `Cc1ccc(O)cc1-c1cc(-c2ncc(C#N)s2)c2c(c1N)C(=O)NC2` [Compound 155], the half-maximal inhibitory concentration (IC50) is 0.179 µM.

In the case of `Cc1ccc(O)cc1-c1cc(-c2ncc(Cl)s2)c2c(c1N)C(=O)NC2` [Compound 156], the IC50 is 0.576 µM.

Take `Cc1ccc(O)cc1-c1cc(-c2nc(C(=O)N3CCOCC3)cs2)c2c(c1N)C(=O)NC2` [Compound 157]: the IC50 worked out at 0.244 µM.

Consider `Cc1ccc(O)cc1-c1cc(-c2nc(C(=O)NC(C)C)cs2)c2c(c1N)C(=O)NC2` [Compound 158], for which the IC50 amounted to 0.055 µM.

As for `CNC(=O)c1csc(-c2cc(-c3cc(O)ccc3C)c(N)c3c2CNC3=O)n1` [Compound 159], the IC50 is 0.075 µM.

Turning to `Cc1ccc(O)cc1-c1cc(-c2nc(C#N)cs2)c2c(c1N)C(=O)NC2` [Compound 160], the IC50 is 0.237 µM.

Consider `Cc1ccc(O)cc1-c1cc(-c2nc(Cl)cs2)c2c(c1N)C(=O)NC2` [Compound 161, 7-amino-4-(4-chlorothiazol-2-yl)-6-(5-hydroxy-2-methylphenyl)isoindolin-1-one], for which the 50% inhibitory concentration (IC50) stood at 0.253 µM.

Regarding `Cc1ccc(O)cc1-c1cc(-c2nc(C(=O)O)cs2)c2c(c1N)C(=O)NC2` [Compound 162], the IC50 was 0.182 µM.

As to `Cc1ccc(O)cc1-c1cc(-c2ccccc2)c2c(c1N)C(=O)NC2` [Compound 163, 7-amino-6-(5-hydroxy-2-methyl-phenyl)-4-phenyl-isoindolin-1-one], the half-maximal inhibitory concentration (IC50) was determined as 1.07 µM.

With `Cc1ccc(O)cc1-c1cc(-c2nccs2)c2cc[nH]c(=O)c2c1N` [Compound 164, 8-amino-7-(5-hydroxy-2-methyl-phenyl)-5-thiazol-2-yl-2H-isoquinolin-1-one], the IC50 was determined as 0.012 µM.

Turning to `Nc1c(-c2cccc3[nH]ncc23)cc(-c2nccs2)c2nc(Oc3ccccc3)[nH]c(=O)c12` [Compound 165, 5-amino-6-(1H-indazol-4-yl)-2-phenoxy-8-(thiazol-2-yl)quinazolin-4(3H)-one], the IC50 was found to be 0.596 µM.
